{"source": "patent US12673084B2", "about": "“Compositions and methods for combinatorial drug discovery in nanoliter droplets” (The Broad Institute, Inc., priority 2017, dated 2026)", "key": {"[1]": {"conditions": "cited from earlier work"}, "E. coli K-12 MG1655": {"test_system": "E. coli K-12 MG1655", "assay": "Antibiotic potentiation primary screen in nanoliter droplet microwell array (GFP growth, Bliss score)", "assay_type": "cell-based, Escherichia coli", "conditions": "for Interaction between Tedizolid and Pasireotide (relative GFP): each 100 μM, same microwell array, FIG. 34; for Primary screening prediction of synergy with tetracycline: compound 100 μM x tetracycline; for Primary screening call, pilot phase: pilot phase of screen", "method": "To perform the antibiotic potentiation screen, each microwell chip received droplets containing a total of 64 input conditions, with 32 held constant across all chips, and 32 that vary on each chip (FIG. 3F). The first 32, held fixed, consisted of 30 antibiotic conditions (10 antibiotics×3 concentrations, no cells), and 2 media controls (no cells). The second 32 consisted of 1-2 positive controls (sulbactam 20 μM, + cells; or erythromycin 5 μM, + cells), 1-2 negative blank controls (+ cells), 2-4 media controls (+ cells), and 24-28 variable compounds (100 μM, + cells). All conditions were in cation-adjusted Mueller Hinton broth media, 2% DMSO (all concentrations reported are final concentrations).\nThis setup allowed the screen to be performed in a divide-and-conquer format. The repurposing compound library is composed of 4,160 compounds across 52 96-well plates (80 compounds per plate, with controls in column 1 and 12). Each 96-well plate was divided into 3 groups of 32, each run on a separate chip but pooled with the same set of antibiotics-carrying droplets.\nE. coli K-12 MG1655 with plasmid-mediated constitutive expression of GFP was prepared as described above, and added to all conditions described as “+ cells” just prior to emulsification. After loading, imaging, and merging, microwell arrays were incubated at 37° C. (static), and then later imaged again to measure growth by GFP fluorescence.\nTo estimate synergy between compounds and antibiotics, the Bliss Independence metric was used.\nThe net growth inhibition for antibiotic A from microwells carrying an antibiotic A (no cells) droplet, and a media (+ cells) droplet were estimated. The net growth inhibition of a screening compound from microwells carrying compound B (+ cells) droplet, and a media (no cells) droplet were also estimated. All growth values were normalized to microwells containing a pair of media (+ cells) and media (no cells) droplets, and estimated synergy using the Bliss Independence metric. Since each antibiotic was present at 3 concentrations, a metric was summed for the compound across each of the 3 conditions to yield a final metric called “Bliss Score.” Compounds with net growth inhibition exceeding 80% were removed from analysis.\nTo estimate the uncertainty in the Bliss Score measurement, all microwells in the array were bootstrap resampled (100 iterations) to the number of counted for each pair of inputs and recomputed Bliss Scores to estimate a sampling distribution and standard error."}, "[2]": {"biological_target": "Native AMPA/kainate receptors, interneurons", "conditions": "cited from earlier work"}, "[3]": {"biological_target": "T1, receptors containing edited GluR2 subunits (Homo sapiens, UniProt P42262, Q607R)", "T1 construct": "host or cells: Xenopus oocytes expressing recombinant receptors", "T1 sequence (P42262 25-883 Q607R)": "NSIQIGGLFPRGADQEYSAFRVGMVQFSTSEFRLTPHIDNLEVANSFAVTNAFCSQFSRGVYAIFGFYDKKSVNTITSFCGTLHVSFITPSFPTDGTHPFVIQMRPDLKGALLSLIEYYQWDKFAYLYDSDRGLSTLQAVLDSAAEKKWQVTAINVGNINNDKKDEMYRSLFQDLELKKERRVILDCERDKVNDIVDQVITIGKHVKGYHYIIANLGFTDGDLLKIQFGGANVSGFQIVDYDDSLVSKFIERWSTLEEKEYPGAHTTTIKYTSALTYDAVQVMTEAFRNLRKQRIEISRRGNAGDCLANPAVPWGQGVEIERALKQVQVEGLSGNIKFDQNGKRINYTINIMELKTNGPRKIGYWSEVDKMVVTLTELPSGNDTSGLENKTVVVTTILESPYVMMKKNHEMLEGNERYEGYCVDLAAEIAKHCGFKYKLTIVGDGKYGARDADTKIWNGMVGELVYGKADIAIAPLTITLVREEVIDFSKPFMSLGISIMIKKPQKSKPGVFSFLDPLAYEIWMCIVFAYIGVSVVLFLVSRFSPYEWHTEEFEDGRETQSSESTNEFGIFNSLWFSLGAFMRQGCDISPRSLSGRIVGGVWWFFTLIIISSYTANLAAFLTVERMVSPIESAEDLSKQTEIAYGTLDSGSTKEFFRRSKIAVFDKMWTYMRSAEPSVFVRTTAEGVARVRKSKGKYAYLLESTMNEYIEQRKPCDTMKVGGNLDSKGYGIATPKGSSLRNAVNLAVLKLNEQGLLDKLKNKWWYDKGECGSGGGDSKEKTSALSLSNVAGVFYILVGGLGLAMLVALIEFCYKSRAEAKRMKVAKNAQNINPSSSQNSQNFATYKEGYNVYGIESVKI", "conditions": "100 microM compound; n=5 oocytes; Vh −80 mV; cited from earlier work"}, "[4]": {"biological_target": "recombinant, homomeric GluR1 and GluR3 receptors", "conditions": "cited from earlier work"}, "[5]": {"biological_target": "Native AMPA/kainate receptors, pyramidal neurons", "conditions": "cited from earlier work"}, "[6]": {"conditions": "416 COPD patients; dry-powder inhaler; cited from earlier work"}, "[7]": {"conditions": "12 weeks, cited from earlier work"}, "[8]": {"conditions": "year-long trial; cited from earlier work"}, "somatostatin receptor 5": {"biological_target": "somatostatin receptor 5 (Homo sapiens, UniProt P35346)", "sequence (P35346 whole entry)": "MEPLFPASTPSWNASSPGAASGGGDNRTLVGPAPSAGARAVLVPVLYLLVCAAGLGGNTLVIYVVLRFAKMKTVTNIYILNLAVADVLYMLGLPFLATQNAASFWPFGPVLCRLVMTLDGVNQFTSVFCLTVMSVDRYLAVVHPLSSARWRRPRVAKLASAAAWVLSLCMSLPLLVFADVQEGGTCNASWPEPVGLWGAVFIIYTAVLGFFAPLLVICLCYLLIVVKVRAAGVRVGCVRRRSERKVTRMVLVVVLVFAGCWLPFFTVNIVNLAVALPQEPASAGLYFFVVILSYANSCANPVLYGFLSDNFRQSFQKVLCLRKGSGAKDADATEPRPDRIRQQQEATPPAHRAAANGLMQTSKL", "conditions": "cited from earlier work"}, "P. aeruginosa": {"test_system": "P. aeruginosa", "assay": "Checkerboard drug interaction assay ampicillin x sulbactam, 96-well broth culture vs microdroplet platform", "assay_type": "cell-based, Pseudomonas aeruginosa", "text": "FIG. 27 is a graph of a comparison checkerboard assay between 96-well plates and microwell array platform. Comparison of checkerboard drug interaction assay in P. aeruginosa for ampicillin and a beta-lactamase inhibitor, sulbactam."}, "Rac": {"biological_target": "Rac (Homo sapiens, UniProt P63000)", "conditions": "cited from earlier work"}}, "note": "Starred links: 1 amine or outer side, 2 acyl side, 3 side chain; linkers in the order of their positions; H or OH if unused. Non-standard residues stand in square brackets, D forms with d. Residues, ends and D or L forms follow the SMILES beside them. Groups on a side chain read outwards from the residue. *: point of attachment. Ethylenediamine = C(CN[*:2])N[*:1]; Hyp = O=C(O)[C@@H]1C[C@@H](O)CN1; Phg = N[C@H](C(=O)O)c1ccccc1; CO = O=C([*:1])[*:2]; Bn = c1ccc(C*)cc1"}
{"molecule": "C[C@@H](O)[C@@H]1NC(=O)[C@H](CCCCN)NC(=O)[C@@H](Cc2c[nH]c3ccccc23)NC(=O)[C@H](Cc2ccccc2)NC(=O)[C@@H](NC(=O)[C@H](N)Cc2ccccc2)CSSC[C@@H](C(=O)N[C@H](CO)[C@@H](C)O)NC1=O", "note": "[Octreotide]", "values": [{"measurement": "half-life", "setting": "[1]", "result": 1.5, "unit": "h"}]}
{"molecule": "Cn1nnc(-c2ccc(-c3ccc(N4C[C@H](CO)OC4=O)cc3F)cn2)n1", "note": "[Tedizolid]", "values": [{"measurement": "Interaction between Tedizolid and Pasireotide (relative GFP)", "setting": "E. coli K-12 MG1655", "result": "synergistic interaction"}]}
{"molecule": "C[N+](C)(C)CCCCCNCC12CC3CC(CC(C3)C1)C2", "note": "[IEM-1460, 1-trimethylammonio-5-(1-adamantane-methyl-ammoniopentanedibromide)]", "values": [{"measurement": "IC50", "setting": "[2]; Vh=−80 mV", "result": 1.6, "unit": "µM"}, {"measurement": "inhibition of responses to 100 microM kainate", "setting": "[3]", "result": "7.8+/−2.4%"}, {"measurement": "IC50", "setting": "[4]; holding potential (Vh) of −80 mV, open channel block", "result": 1.6, "unit": "µM"}, {"measurement": "IC50", "setting": "[5]; Vh=−80 mV", "result": 1620, "unit": "µM"}]}
{"molecule": "CCc1cc2c(cc1CC)CC(NC[C@H](O)c1ccc(O)c3[nH]c(=O)ccc13)C2", "note": "[Indacaterol]", "values": [{"measurement": "FEV1 (both trough and AUC) compared to placebo", "setting": "[6]", "result": "statistically improved"}, {"measurement": "effect on FEV1 compared with tiotropium", "setting": "[7]", "result": "no statistical difference"}, {"measurement": "St. George's Respiratory Questionnaire (SGRQ) total score", "setting": "[7]; vs tiotropium", "result": "greater improvements"}, {"measurement": "transition dyspnoea index (TDI) total score", "setting": "[7]; vs tiotropium", "result": "greater improvements"}, {"measurement": "Primary screening call with erythromycin", "setting": "E. coli K-12 MG1655; compound 100 μM x erythromycin, E. coli", "result": "screening hit"}, {"measurement": "improving FEV1 compared with twice-daily formoterol", "setting": "[8]", "result": "significantly more effective"}]}
{"molecule": "NCCCC[C@@H]1NC(=O)[C@@H](Cc2c[nH]c3ccccc23)NC(=O)[C@H](c2ccccc2)NC(=O)[C@@H]2C[C@@H](OC(=O)NCCN)CN2C(=O)[C@H](Cc2ccccc2)NC(=O)[C@H](Cc2ccc(OCc3ccccc3)cc2)NC1=O", "note": "[Pasireotide, cyclo[{4-(NH2-C2H4-NH—CO—O-)Pro}-Phg-DTrp-Lys-Tyr(4-Bzl)-Phe]] (cyclo([Hyp]([CO-Ethylenediamine])[Phg][dW]KY(Bn)F))", "values": [{"measurement": "Interaction between Tedizolid and Pasireotide (relative GFP)", "setting": "E. coli K-12 MG1655", "result": "synergistic interaction"}, {"measurement": "increased affinity to somatostatin receptor 5 compared to other somatostatin analogs", "setting": "somatostatin receptor 5", "result": 40, "unit": "fold"}]}
{"molecule": "Br.Br.NCCCCCNCC12CC3CC(CC(C3)C1)C2", "note": "[IEM 1754, 1-ammonio-5-(1-adamantane-methylammoniopentanedibromide)]", "values": [{"measurement": "times less potent than IEM-1460", "setting": "[2]", "result": "approximately 3 times"}, {"measurement": "times less potent than IEM-1460", "setting": "[4]; homomeric GluR1 and GluR3", "result": 3.8, "unit": "times"}, {"measurement": "Primary screening prediction of synergy with tetracycline", "setting": "E. coli K-12 MG1655; E. coli", "result": "predicted neutral"}, {"measurement": "Primary screening call, pilot phase", "setting": "E. coli K-12 MG1655; E. coli", "result": "hit"}, {"measurement": "potency relative to IEM-1460", "setting": "[5]", "result": "equipotent"}]}
{"molecule": "CCN(CC)CCCC(C)Nc1nc(C)cc(Nc2ccc3nc(C)cc(N)c3c2)n1.Cl.Cl.Cl", "note": "(racemic) [NSC23766]", "values": [{"measurement": "Primary screening prediction of synergy with novobiocin", "setting": "E. coli K-12 MG1655; compound 100 μM x novobiocin, E. coli", "result": "synergy predicted"}, {"measurement": "Primary screening prediction of synergy with tetracycline", "setting": "E. coli K-12 MG1655; E. coli", "result": "no synergy predicted"}]}
{"molecule": "O=C(CNC(=O)c1ccc(Cl)cc1)NO", "note": "[Benurestat, 2-(para-chlorobenzamide)-acetohydroxamic acid]", "values": [{"measurement": "Primary screening call with vancomycin", "setting": "E. coli K-12 MG1655; compound 100 μM x vancomycin, E. coli", "result": "screening hit"}, {"measurement": "Primary screening call, pilot phase", "setting": "E. coli K-12 MG1655; E. coli", "result": "hit"}]}
{"molecule": "CC1(C)[C@H](C(=O)O)N2C(=O)C[C@H]2S1(=O)=O", "note": "[sulbactam]", "values": [{"measurement": "FIC with ampicillin", "setting": "P. aeruginosa; 96-well broth culture", "result": "<= 0.5"}, {"measurement": "FIC with ampicillin", "setting": "P. aeruginosa; microdroplet platform", "result": "<= 0.3125"}, {"measurement": "Bliss score with ampicillin", "setting": "E. coli K-12 MG1655; positive control, expected value, sulbactam 20 μM x ampicillin, E. coli", "result": "~ 1"}]}
{"molecule": "CCn1c2ccccc2c2cc(Nc3ccnc(NCCCN4CCOCC4)n3)ccc21", "note": "(racemic) [EHop-016]", "values": [{"measurement": "more efficient inhibitor of Rac activity than NSC23766", "setting": "Rac", "result": 100, "unit": "fold"}]}
{"molecule": "CC[C@H]1OC(=O)[C@H](C)[C@@H](O[C@H]2C[C@@](C)(OC)[C@@H](O)[C@H](C)O2)[C@H](C)[C@@H](O[C@@H]2O[C@H](C)C[C@H](N(C)C)[C@H]2O)[C@](C)(O)C[C@@H](C)C(=O)[C@H](C)[C@@H](O)[C@]1(C)O", "note": "[erythromycin]", "values": [{"measurement": "Bliss score with tetracycline", "setting": "E. coli K-12 MG1655; positive control, expected value, erythromycin 5 μM x tetracycline, E. coli", "result": "~ 0.5"}]}
